Assay results published in PMC11883961 (RSC Chemical Biology, 2025).

Legend:
[1] = target: FKBP12 ligand pocket (FKBP12-LgBiT/MAPRE1-SmBiT in HEK293T cells) (Homo sapiens, UniProt P62942+Q15691); assay: NanoBiT FKBP ligand competition experiments; assay type: cell-based; conditions: 80 μM competitor; recruiters up to 20 μM
[2] = target: FKBP12-LgBiT and MAPRE1 (N183-Y268)-SmBiT in HEK293T cells (Homo sapiens, UniProt P62942+Q15691); assay: NanoBiT FKBP12-MAPRE1 recruitment experiments; assay type: cell-based
Chain of FKBP12-LgBiT and MAPRE1 (N183-Y268)-SmBiT in HEK293T cells (P62942 whole entry): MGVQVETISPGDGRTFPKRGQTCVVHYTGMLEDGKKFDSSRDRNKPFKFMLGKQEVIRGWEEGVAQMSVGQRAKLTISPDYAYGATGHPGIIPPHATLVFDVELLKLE
Chain of FKBP12-LgBiT and MAPRE1 (N183-Y268)-SmBiT in HEK293T cells (Q15691 183-268): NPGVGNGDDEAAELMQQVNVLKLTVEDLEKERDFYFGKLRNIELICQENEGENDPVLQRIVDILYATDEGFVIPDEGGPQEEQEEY

Chain of FKBP12 ligand pocket (FKBP12-LgBiT/MAPRE1-SmBiT in HEK293T cells) (P62942 whole entry): as the sequence (P62942 whole entry) above
Chain of FKBP12 ligand pocket (FKBP12-LgBiT/MAPRE1-SmBiT in HEK293T cells) (Q15691 183-268): as the sequence (Q15691 183-268) above

Structure (SMILES): CO[C@H]1C[C@@H]2CC[C@@H](C)[C@@](O)(O2)C(=O)C(=O)N2CCCC[C@H]2C(=O)O[C@H]([C@H](C)C[C@@H]2CC[C@@H](O)[C@H](OC)C2)CC(=O)[C@H](C)/C=C(\C)[C@@H](O)[C@@H](OC)C(=O)[C@H](C)C[C@H](C)/C=C/C=C/C=C/1C [Rapamycin]
- ability to outcompete glue recruiters for FKBP12 [1]: able to outcompete even the highest dose of all glue recruiters tested
- recruitment of MAPRE1 to FKBP12 in cells [2]: neither of which measurably recruits MAPRE1 to FKBP12
